From ChEMBL document CHEMBL4699511, “Cedrol, a Sesquiterpene Alcohol, Enhances the Anticancer Efficacy of Temozolomide in Attenuating Drug Resistance via Regulation of the DNA Damage Response and MGMT Expression” (J Nat Prod, 2020)
Active and inactive are the calls of the source. The calls are words filed in the database; no cut-off is given here.

Experiments:
RG2 [1] = assay: Induction of apoptosis in rat RG2 cells assessed as Bax expression at 112.4 uM after 48 hrs by Western blot analysis (reference value: 1); format: functional
DBTRG-05MG [2] = assay: Synergistic cytotoxicity against human DBTRG-05MG cells assessed as combination index at 134.9 uM after 48 hrs in presence of 515.1 uM TMZ by MTT assay; format: functional
DBTRG-05MG [3] = assay: Induction of DNA damage in human DBTRG-05MG cells at 112.4 uM after 48 hrs in presence of TMZ by p.H2A.X staining based fluorescent immunocytochemistry method; format: functional, cell-based
DBTRG-05MG [4] = assay: Induction of cell cycle arrest in human DBTRG-05MG cells assessed as accumulation at G2/M phase at 112.4 uM after 6 hrs by propidium iodide staining based flow cytometric analysis (reference value: 30.08 +/- 0.1%); format: functional
[5] = Inhibition of TMZ-induced drug resistance in human DBTRG-05MG cells assessed as MDR1 expression at 112.4 uM after 48 hrs by Western blot analysis (reference value: 1.5); format: functional
RG2 [6] = assay: Induction of cell cycle arrest in rat RG2 cells assessed as CyclinA expression at 112.4 uM after 48 hrs in presence of TMZ by Western blot analysis (reference value: 1); format: functional
RG2 [7] = assay: Synergistic cytotoxicity against rat RG2 cells assessed as combination index at 134.9 uM after 48 hrs in presence of 309 uM TMZ by MTT assay; format: functional
RG2 [8] = assay: Induction of apoptosis in rat RG2 cells assessed as increase in chromatin condensation at 112.4 uM after 48 hrs in presence of TMZ by TUNEL assay; format: functional, cell-based
RG2 [9] = assay: Induction of cell cycle arrest in rat RG2 cells assessed as accumulation at G0/G1 phase at 112.4 uM after 48 hrs in presence of TMZ by propidium iodide staining based flow cytometric analysis (reference value: 57.81 +/- 1.9%); format: functional
DBTRG-05MG [10] = assay: Synergistic cytotoxicity against human DBTRG-05MG cells assessed as combination index at 112.4 uM after 48 hrs in presence of 206 uM TMZ by MTT assay; format: functional
DBTRG-05MG [11] = assay: Synergistic cytotoxicity against human DBTRG-05MG cells assessed as synergistic effect index at 89.9 uM after 48 hrs in presence of 412.1 uM TMZ by MTT assay; format: functional
DBTRG-05MG [12] = assay: Synergistic cytotoxicity against human DBTRG-05MG cells assessed as synergistic effect index at 112.4 uM after 48 hrs in presence of 206 uM TMZ by MTT assay; format: functional
DBTRG-05MG [13] = assay: Induction of cell cycle arrest in human DBTRG-05MG cells assessed as accumulation at G2/M phase at 112.4 uM after 48 hrs in presence of TMZ by propidium iodide staining based flow cytometric analysis (reference value: 30.08 +/- 0.1%); format: functional
DBTRG-05MG [14] = assay: Induction of apoptosis in human DBTRG-05MG cells assessed as cleaved caspace-3 expression at 112.4 uM after 48 hrs in presence of TMZ by Western blot analysis (reference value: 1); format: functional
DBTRG-05MG [15] = assay: Potentiation of TMZ-induced antitumor activity against human DBTRG-05MG cells xenografted in BALB/c nude mouse assessed as reduction in tumor growth at 75 mg/kg, sc co-treated with TMZ for 18 days by PCNA staining-based bright field microscopic analysis; format: functional, organism-based; settings: time 18.0 day
RG2 [16] = assay: Induction of cell cycle arrest in rat RG2 cells assessed as p21 expression at 112.4 uM after 48 hrs by Western blot analysis (reference value: 1); format: functional
DBTRG-05MG [17] = assay: Potentiation of TMZ-induced antitumor activity against human DBTRG-05MG cells xenografted in BALB/c nude mouse assessed as reduction in tumour growth at 75 mg/kg, sc co-treated with TMZ for 18 days; format: functional, organism-based; settings: time 18.0 day
RG2 [18] = assay: Induction of cell cycle arrest in rat RG2 cells assessed as accumulation at S phase at 112.4 uM after 12 hrs in presence of TMZ by propidium iodide staining based flow cytometric analysis (reference value: 20.15 +/- 2.44%); format: functional
DBTRG-05MG [19] = assay: Synergistic cytotoxicity against human DBTRG-05MG cells assessed as synergistic effect index at 112.4 uM after 48 hrs in presence of 412.1 uM TMZ by MTT assay; format: functional
[20] = Synergistic cytotoxicity against rat CTX TNA2 cells assessed as synergistic effect index at 89.9 uM after 48 hrs in presence of 309 uM TMZ by MTT assay; format: cell-based; settings: ctx tna2, 48 h
DBTRG-05MG [21] = assay: Induction of apoptosis in human DBTRG-05MG cells assessed as increase in DNA fragmentation at 112.4 uM after 48 hrs by TUNEL assay; format: functional, cell-based
RG2 [22] = assay: Synergistic cytotoxicity against rat RG2 cells assessed as combination index at 112.4 uM after 48 hrs in presence of 309 uM TMZ by MTT assay; format: functional
[23] = Synergistic cytotoxicity against rat CTX TNA2 cells assessed as combination index at 112.4 uM after 48 hrs in presence of 515.1 uM TMZ by MTT assay; format: cell-based; settings: ctx tna2, 48 h
DBTRG-05MG [24] = assay: Induction of DNA damage in human DBTRG-05MG cells assessed as H2A.X phosphorylation at ser139 residues at 112.4 uM after 48 hrs by Western blot analysis (reference value: 1); format: functional
RG2 [25] = assay: Inhibition of ERK phosphorylation at Tyr204 residues in rat RG2 cells at 206 uM after 48 hrs by Western blot analysis (reference value: 1); format: cell-based
DBTRG-05MG [26] = assay: Induction of apoptosis in human DBTRG-05MG cells assessed as phosphorylated caspace-3 expression at 206 uM after 48 hrs by Western blot analysis (reference value: 1); format: functional
DBTRG-05MG [27] = assay: Induction of cell cycle arrest in human DBTRG-05MG cells assessed as CDK4 expression at 206 uM after 48 hrs by Western blot analysis (reference value: 1); format: functional
DBTRG-05MG [28] = assay: Inhibition of JNK phosphorylation at Thr183/Tyr185 residues in human DBTRG-05MG cells at 206 uM after 48 hrs by Western blot analysis (reference value: 1); format: cell-based
RG2 [29] = assay: Induction of apoptosis in rat RG2 cells assessed as phosphorylated PARP expression at 206 uM after 48 hrs by Western blot analysis (reference value: 1); format: functional
RG2 [30] = assay: Induction of DNA damage in rat RG2 cells assessed as ATM phosphorylation at ser1981 residues at 206 uM after 48 hrs by Western blot analysis (reference value: 1); format: functional
DBTRG-05MG [31] = assay: Induction of cell cycle arrest in human DBTRG-05MG cells assessed as accumulation at S phase at 206 uM after 24 hrs by propidium iodide staining based flow cytometric analysis (reference value: 22.76 +/- 1.56%); format: functional
RG2 [32] = assay: Induction of apoptosis in rat RG2 cells assessed as cleaved caspace-3 expression at 206 uM after 48 hrs by Western blot analysis (reference value: 1); format: functional
DBTRG-05MG [33] = assay: Inhibition of ERK phosphorylation at Tyr204 residues in human DBTRG-05MG cells at 206 uM after 48 hrs by Western blot analysis (reference value: 1); format: cell-based

For C[C@@H]1CC[C@H]2C(C)(C)[C@H]3C[C@@]12CC[C@@]3(C)O [CEDROL], the “fold change (FC)” value (RG2 [1]) was 1.1, the CI (DBTRG-05MG [2]) was 0.68 and the Activity (DBTRG-05MG [3]) was “Active”. The Activity (DBTRG-05MG [4]) was 30.35%, the “fold change (FC)” value [5] was 0.7 and the “fold change (FC)” value (RG2 [6]) was 0.7. The CI (RG2 [7]) was 0.92, the Activity (RG2 [8]) was “Active” and the Activity (RG2 [9]) was 44%. It also gave a CI (DBTRG-05MG [10]) of 0.5, an Activity_index (DBTRG-05MG [11]) of 0.76 and an Activity_index (DBTRG-05MG [12]) of 0.88. For the same compound, the Activity (DBTRG-05MG [13]) was 38.26%, the “fold change (FC)” value (DBTRG-05MG [14]) was 4.4 and the Activity (DBTRG-05MG [15]) was “Active”. For the same compound, the “fold change (FC)” value (RG2 [16]) was 1.6, the Activity (DBTRG-05MG [17]) was “Active” and the Activity (RG2 [18]) was 21.29%. The Activity_index (DBTRG-05MG [19]) was 0.86, the Activity_index [20] was 0.49 and the Activity (DBTRG-05MG [21]) was “Active”. The CI (RG2 [22]) was 0.9, the CI [23] was 0.87 and the “fold change (FC)” value (DBTRG-05MG [24]) was 0.9.

With Cn1nnc2c(C(N)=O)ncn2c1=O [TEMOZOLOMIDE] the fold change (FC) (RG2 [25]) was 0.7, the “fold change (FC)” value (DBTRG-05MG [26]) was 1.3 and the “fold change (FC)” value (DBTRG-05MG [27]) was 0.7. The fold change (FC) (DBTRG-05MG [28]) was 1.2, the “fold change (FC)” value (RG2 [29]) was 0.4 and the “fold change (FC)” value (RG2 [30]) was 0.9. The Activity (DBTRG-05MG [31]) was 25.43%, the “fold change (FC)” value (RG2 [32]) was 2.5 and the fold change (FC) (DBTRG-05MG [33]) was 0.8.
